From a melting point compilation (Tetko et al.; mined from patent text by program, amines drawn as free bases though some values may be those of a salt)

First: CC#CCOc1ccc(S(=O)(=O)N(Cc2cccnc2)C2(C(=O)NO)CCCCC2)cc1
Second: CN(CCOc1ccc(NS(C)(=O)=O)cc1)CCc1ccc(NS(C)(=O)=O)cc1
The melting point of the first is higher: 179 to 181 °C for the first, 150 to 152 °C for the second.

First: COc1ccc(OC)c(-c2cn(N)c(N)n2)c1
Second: Cn1nc(-c2ccc(OC(F)(F)F)cc2)cc1CBr
The melting point of the first is higher: 159 to 160 °C for the first, 70 to 71 °C for the second.

First: O=C(Cl)c1cc(OCc2ccccc2)cc(OCc2ccccc2)c1
Second: O=S(=O)(Nc1cccnc1Nc1ccccc1)c1ccccc1
The melting point of the first is lower: 73 to 74 °C for the first, 148 to 150 °C for the second.

Compared with CSC(NCCSCc1[nH]cnc1C)=C(C#N)C(N)=O, CCOC(=O)c1cc2ccc(Cl)nc2[nH]1 is higher in melting point: 137 to 139 °C for the first, 144 to 145 °C for the second.

First: CC(C)(C)OC(=O)COCCC1CCN(c2cnc(-c3ccccc3)c(-c3ccccc3)n2)CC1
Second: CCC(O)(c1ccc(OCCCN2CCC(C)CC2)cc1)c1ccccc1OC (stereo not given)
The melting point of the first is higher: 104 to 106 °C for the first, 82 to 83 °C for the second.

Compared with ON=C1CCC(c2ccc(Cl)cc2)c2ccccc21 (stereo not given), CC1=Nc2ccccc2CC(c2ccncc2)N1C (stereo not given) is higher in melting point: 150 to 154 °C for the first, 159 to 161 °C for the second.

O=C(C1CO1)C(Cl)(Cl)Cl (stereo not given) and C[C@@H](Cn1ncc2ccc3c(c21)C[C@@H](OCC(N)=O)CO3)N=[N+]=[N-] cannot be ordered by melting point: 92 to 95 °C for the first, 94 to 97 °C for the second.

First: COC(=O)c1ccc(CNC(=O)C2Cc3ccccc3N2S(=O)(=O)c2ccc(-c3cccc(C(F)(F)F)c3)cc2)cc1 (stereo not given)
Second: O=C(O)c1cccc(-c2cccc3nc(Cc4cccc(C(F)(F)F)c4)oc23)c1
The melting point of the first is lower: 70 °C for the first, 175 to 176 °C for the second.

First: CC(=O)C1(O)C=c2ccccc2=NC1C (stereo not given)
Second: CC(=O)Nc1onc(-c2ccccc2)c1Cl
The melting point of the first is lower: 54 to 56 °C for the first, 141 to 142 °C for the second.

Compared with COc1ccc(C2=NN(C3CCCC3)C(=O)[C@H]3CC=CC[C@@H]23)cc1O (relative stereo), CS(=O)CC(=NC1CCCCC1)c1ccccc1O (stereo not given) is lower in melting point: 142 to 144 °C for the first, 133 to 134 °C for the second.

First: Oc1ccc(-c2nc3cc(O)cc(-c4ccccc4)c3o2)cc1
Second: O=C(NNS(=O)(=O)c1ccccc1)c1cc2cccc(Cl)c2o1
The melting point of the first is lower: 92 °C for the first, 179 to 180 °C for the second.

Compared with CC1(C)C2CC[C@]1(C)C(=O)C(C(=O)Nc1cc(C(F)(F)F)cc(C(F)(F)F)c1)C2=O (stereo not given in full), NC(=O)Nc1c(C(O)(C(F)(F)F)C(F)(F)F)ccc2c1CCCC2 is higher in melting point: 68 to 72 °C for the first, 157 to 159 °C for the second.

First: CN1CCC(CC(=O)N2c3ccccc3C(=O)Nc3cccc(Cl)c32)CC1
Second: COc1cc(I)c(Cl)cc1C(=O)N1Cc2cccn2Cc2ccccc21
The melting point of the first is higher: 112 °C for the first, 92 to 98 °C for the second.

First: Cn1nc2c(cc1=O)CCSc1ccccc1-2
Second: CCc1cn(C(C)C(=O)N(C)C)nc1-c1ccccc1 (stereo not given)
The melting point of the first is higher: 139 to 140 °C for the first, 73.5 to 75 °C for the second.

Compared with Cc1ccccc1CNC(=O)c1cc(C)c([N+](=O)[O-])c(C)c1, CCOC(=O)C1=C(C)NC(=S)N(C(=O)OCC)C1c1cccc(C)c1 (stereo not given) is lower in melting point: 202 to 203 °C for the first, 93 to 95 °C for the second.

Going from COC(=O)C(c1ccccc1)N1CCN(c2ccc([N+](=O)[O-])cc2)CC1 (stereo not given) to Cn1c(-c2ccc(Cl)cc2)nc2cc(CN3CCN(C(c4ccccc4)c4ccccc4)CC3)ccc21, the melting point rises from 92 °C to 198 °C.

Compared with CN(c1cccc2cc(-c3nccs3)[nH]c12)S(=O)(=O)c1ccsc1CS(C)(=O)=O, COC(=O)c1ccc(Cn2cc(C=C3C(=O)NC(=O)NC3=O)c3ccccc32)cc1 is higher in melting point: 253 °C for the first, > 300 °C for the second.

First: NC(=O)C1(CCCNC=O)c2ccccc2-c2ccccc21
Second: CNC(=S)C1=CC(CF)(CF)Oc2ccc(C(F)(F)F)cc21
The melting point of the first is higher: 160 to 161 °C for the first, 145 to 147 °C for the second.

Compared with Cc1nc2sccn2c1C1=NNC(=O)OC1, Cc1cccc(C2(Cn3cncn3)OCCO2)c1 is lower in melting point: 294 °C for the first, 105 °C for the second.

Compared with C=CC1CC2=CC(=O)CCC2(C)C2CCC3(C)C(CCC3(C)O)C12 (stereo not given), CC(C)(C)c1cc2c(c(C(=O)Nc3ccc(S(=O)(=O)C(F)(F)F)cc3Cl)c1O)CCC2 is higher in melting point: 116 to 117 °C for the first, 172 to 173 °C for the second.
